Key:
[1] = tested on: biomarkers for myocardial infarction risk; settings: clinical trial; cited from earlier work
[2] = molecular target: T1, recombinant human FLAP protein (Homo sapiens, UniProt P20292); assay: FLAP binding assay (Scintillation Proximity Assay, displacement of [125I]L-691,831); settings: read-out: FLAP SPA IC50
T1 construct: made in house; host or cells: Sf9 insect cells (100,000xg membrane fraction used)
T1 sequence (P20292 1-161): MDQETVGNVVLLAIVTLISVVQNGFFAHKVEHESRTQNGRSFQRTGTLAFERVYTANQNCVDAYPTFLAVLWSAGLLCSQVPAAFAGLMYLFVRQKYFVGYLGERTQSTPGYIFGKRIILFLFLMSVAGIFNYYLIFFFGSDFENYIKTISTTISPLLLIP
Procedure, shortened: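 Scintillation proximity displacement of [125I]L-691,831 (0.08 nM) from membranes of sf9 cells expressing recombinant human FLAP (5 μg/well) on WGA SPA beads, pH 7.5 Tris buffer. Plates shaken 2 h before counting. Non-specific binding defined with 10 μM unlabelled L-691,831.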

[3] = tested on: synthesis of LTB4 in human whole blood; assay: human whole blood LTB4 production inhibition assay; assay type: cell-based; settings: calcimycin stimulated, read-out: hWB LTB4 IC50
Procedure, shortened: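 Heparinized human whole blood preincubated with compound 15 min at 37 °C, then stimulated with calcimycin (20 μM final) for 30 min at 37 °C. Plasma LTB4 measured after low-speed centrifugation by antibody-based homogeneous time-resolved fluorescence.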

human glomerulonephritis = settings: clinical trial; cited from earlier work
[4] = tested on: apoE/LDL-R double knockout mice; settings: oral dosing, high-fat diet from 2 months of age to 6 months; cited from earlier work
ApoE−/−xCD4dnTβRII mice = settings: infusion, treated for four weeks; cited from earlier work

| Compound | IC50 [2] [nM] | IC50 [3] [nM] | also measured |
| --- | --- | --- | --- |
| O=C(O)[C@@H](c1ccc(OCc2ccc3ccccc3n2)cc1)C1CCCC1 [DG-031] |  |  | effect on biomarkers for myocardial infarction risk [1]: dose-dependent suppression of several biomarkers |
| CC(C)(O)Cn1cc(-c2nc([C@@](C)(c3ccc(-c4cnc(N)c(C#N)n4)nc3)C3CC3)no2)cn1 [Example 164, 3-Amino-6-[5-((R)-1-cyclopropyl-1-{5-[1-(2-hydroxy-2-methyl-propyl)-1H-pyrazol-4-yl]-[1,2,4]oxadiazol-3-yl}-ethyl)-pyridin-2-yl]-pyrazine-2-carbonitrile] | 40 | 97 |  |
| CNc1ncc(-c2ccc([C@](C)(c3noc(-c4cnn(CC(C)(C)O)c4)n3)C3CC3)cn2)cn1 [Example 165, 1-[4-(3-{(R)-1-Cyclopropyl-1-[6-(2-methylamino-pyrimidin-5-yl)-pyridin-3-yl]-ethyl}-[1,2,4]oxadiazol-5-yl)-pyrazol-1-yl]-2-methyl-propan-2-ol] | 56 | 82 |  |
| Cc1nc(N)cnc1-c1ccc([C@](C)(c2noc(-c3cnn(CC(C)(C)O)c3)n2)C2CC2)cn1 [Example 166, 1-[4-(3-{(R)-1-[6-(5-Amino-3-methyl-pyrazin-2-yl)-pyridin-3-yl]-1-cyclopropyl-ethyl}-[1,2,4]oxadiazol-5-yl)-pyrazol-1-yl]-2-methyl-propan-2-ol] | 41 | 57 |  |
| CC(C)(O)Cn1cc(-c2nc([C@@](C)(c3ccc(-c4cnc(N)c(F)c4)nc3)C3CC3)no2)cn1 [Example 177, 1-(4-{3-[(R)-1-(6′-Amino-5′-fluoro-[2,3′]bipyridinyl-5-yl)-1-cyclopropyl-ethyl]-[1,2,4]oxadiazol-5-yl}-pyrazol-1-yl)-2-methyl-propan-2-ol] | 65 | 256 |  |
| CC(C)(O)Cn1cc(-c2nc([C@](C)(c3ccc(-c4cnc(N)c(F)c4)nc3)C3CC3)no2)cn1 [Example 178, 1-(4-{3-[(S)-1-(6′-Amino-5′-fluoro-[2,3′]bipyridinyl-5-yl)-1-cyclopropyl-ethyl]-[1,2,4]oxadiazol-5-yl}-pyrazol-1-yl)-2-methyl-propan-2-ol] | 2000 | 2350 |  |
| Cc1nc(N)ncc1-c1ccc(C(C)(c2noc(-c3cnn(CC(C)(C)O)c3)n2)C2CC2)cn1 (stereo not drawn) [Example 179, 1-[4-(3-{1-[6-(2-Amino-4-methyl-pyrimidin-5-yl)-pyridin-3-yl]-1-cyclopropyl-ethyl}-[1,2,4]oxadiazol-5-yl)-pyrazol-1-yl]-2-methyl-propan-2-ol] | 450 | 483 |  |
| Cc1nc(N)ncc1-c1ccc(C(C)(c2noc(-c3cnn(C)c3)n2)C2CC2)cn1 (stereo not drawn) [Example 180, 5-(5-{1-Cyclopropyl-1-[5-(1-methyl-1H-pyrazol-4-yl)-[1,2,4]oxadiazol-3-yl]-ethyl}-pyridin-2-yl)-4-methyl-pyrimidin-2-ylamine] | 190 | 309 |  |
| Cn1cc(-c2nc(C(C)(c3ccc(-c4cnc(N)cn4)nc3)C3CC3)no2)cn1 (stereo not drawn) [Example 181, 5-(5-{1-Cyclopropyl-1-[5-(1-methyl-1H-pyrazol-4-yl)-[1,2,4]oxadiazol-3-yl]-ethyl}-pyridin-2-yl)-pyrazin-2-ylamine] | 34 | 65 |  |
| CC(C)(C)Sc1c(CC(C)(C)C(=O)O)n(Cc2ccc(Cl)cc2)c2ccc(OCc3ccc4ccccc4n3)cc12 [MK-591] |  |  | effect on proteinuria (human glomerulonephritis): reduce proteinuria |
| CC(C)c1ccc2c(c1)c(SC(C)(C)C)c(CC(C)(C)C(=O)O)n2Cc1ccc(Cl)cc1 [MK-886] |  |  | decrease in plaque coverage in the aorta [4]: 56%; decrease in plaque coverage in the aortic root [4]: 43%; decrease in plaque area in the aortic root (ApoE−/−xCD4dnTβRII mice): ~40% |

— patent US8580825B2, “Oxadiazole inhibitors of leukotriene production” (Boehringer Ingelheim International GmbH, priority 2010, dated 2013)
